# Measurements published in patent publication US9199942B2, “Processes for the preparation of pesticidal compounds” (Dow AgroSciences LLC, priority 2013, dated 2015).
# Where a name gives a salt, the structure may show the parent alone. Read-outs that look alike come from different tables or passages of the source.
# Experiments:
# [1] = system: Green Peach Aphid (Myzus persicae) (MYZUPE); assay: Bioassay on green peach aphid (GPA), foliar spray on infested cabbage seedlings; format: in vivo; conditions: 72 h, read-out: MYZUPE rating (% Control of Mortality)
# Description: Example A Bioassays on Green Peach Aphid (“GPA”) (Myzus persicae) (MYZUPE.
# Several molecules disclosed herein were tested against GPA using procedures described below.
# Cabbage seedling grown in 3-in pots, with 2-3 small (3-5 cm) true leaves, were used as test substrate. The seedlings were infested with […] (wingless adult and nymph stages) one day prior to chemical application. Four posts with individual seedlings were used for each treatment. Test compounds (2 mg) were dissolved in 2 mL of acetone/methanol (1:1) solvent, forming stock solutions of 1000 ppm test compound. The stock solutions were diluted 5× with 0.025% Tween 20 in water to obtain the solution at 200 ppm test compound. A hand-held aspirator-type sprayer was used for spraying a solution to both sides of the cabbage leaves until runoff. Reference plants (solvent check) were sprayed with the diluent only containing 20% by volume acetone/methanol (1:1) solvent. Treated plants were held in a holding room for three days at approximately 25° C. and ambient relative humidity (RH) prior to grading. Evaluation was conducted by counting the number of live aphids per plant under a microscope. Percent Control was measured by using Abbott's correction formula (W. S. Abbott, “A Method of Computing the Effectiveness of an Insecticide” J. Econ. Entomol 18 (1925), pp. 265-267) as follows. Corrected % Control=100*(X−Y)/X • where • X=No. of live aphids on solvent check plants and • Y=No. of live aphids on treated plants
# The results are indicated in the table entitled “Table 1: GPA (MYZUPE) and sweetpotato whitefly-crawler (BEMITA) Rating Table”.
# [2] = system: Sweetpotato Whitefly Crawler (Bemisia tabaci) (BEMITA); assay: Bioassay on sweetpotato whitefly crawler, foliar spray on infested cotton plants; format: in vivo; conditions: read-out: BEMITA rating (% Control of Mortality)
# Description: Example B Bioassays on Sweetpotato Whitefly Crawler (Bemisia tabaci) (BEMITA.)
# Cotton plants grown in 3-inch pots, with 1 small (3-5 cm) true leaf, were used at test substrate. The plants were placed in a room with whitely adults. Adults were allowed to deposit eggs for 2-3 days. After a 2-3 day egg-laying period, plants were taken from the adult whitefly room. Adults were blown off leaves using a hand-held Devilbliss sprayer (23 psi). Plants with egg infestation (100-300 eggs per plant) were placed in a holding room for 5-6 days at 82° F. and 50% RH for egg hatch and crawler stage to develop. Four cotton plants were used for each treatment. Compounds (2 mg) were dissolved in 1 mL of acetone solvent, forming stock solutions of 2000 ppm. The stock solutions were diluted 10× with 0.025% Tween 20 in water to obtain a test solution at 200 ppm. A hand-held Devilbliss sprayer was used for spraying a solution to both sides of cotton leaf until runoff. Reference plants (solvent check) were sprayed with the diluent only. Treated plants were held in a holding room for 8-9 days at approximately 82° F. and 50% RH prior to grading. Evaluation was conducted by counting the number of live nymphs per plant under a microscope.
# [3] = 200 ppm spray on cabbage leaves, live aphids counted after three days, Abbott's correction
# [4] = 200 ppm spray on cotton leaves, live nymphs counted after 8-9 days, Abbott's correction
Structure (SMILES),mortality at 200 ppm [1] [%],mortality at 200 ppm [2] [%],"mortality at 200 ppm [1, 3] [%]","mortality at 200 ppm [2, 4] [%]"
"Nc1c[nH]nc1Cl [Compound 1a, 3-chloro-1H-pyrazol-4-amine hydrochloride]",0 to 80,0 to 80,,
O=C(CCSCCC(F)(F)F)Nc1c[nH]nc1Cl [Compound 3.4],,,0 to 80,0 to 80
"O=C(CCCl)Nc1c[nH]nc1Cl [Compound 4a, 3-chloro-N-(-3-chloro-1H-pyrazol-4-yl) propanamide]",,,< 0,0 to 80
